# Data: US5334619A, “Inhibition of postharvest fruit decay by 2-nonanone” (priority 1993, dated 1994)
# Tests used:
# B. cinerea [1] = assay: Treatment of isolated cultures with 2-nonanone vapor; format: cell-based, Botrytis cinerea; details: 7 days, 10° C., 0 = no growth, 4 = media completely covered
# Experimental: (§1) Fungal cultures of A. alternata and B. cinerea were obtained from the Agricultural Research Service, NRRL Culture Collection in Peoria, Ill. […] An isolate of C. gloeosporioides pathogenic on blueberries was obtained from the USDA/ARS Cranberry and Blueberry Research Center, Chatsworth, N.J. All cultures were maintained at 24° C. and 95% relative humidity on V-8 juice agar supplemented with 0.3% CaCO3 and adjusted to pH 5.8. Spores of each fungus were removed from sporulating cultures by carefully brushing the surface of the media with a glass rod and suspending the spores in sterile water. The concentrations of spores in the suspensions were adjusted to concentrations of 10^6 to 10^7 spores/ml. These suspensions were mixed together to form a composite suspension which was used to inoculate all the fruit in a given experiment.
# (§2) A bioassay system was developed to test the effects of the volatile compounds on fungal growth both on intact fruit and on V-8 juice medium. The apparatus consisted of 75 ml glass jars into which either fruit or sterilized V-8 juice medium (10 ml) were added. These jars were placed in 275 ml airtight glass jars with aluminum foil cap liners. The bottom of each 275 ml jar was fitted with a 5.5 cm filter paper disk (Whatman No. 1) for application of the appropriate amount of test compound. The total gas headspace in the larger jars after the addition of all components was 250 ml.
# (§3) The fungi assayed against included B. cinerea, C. gloeosporioides and A. alternata. The compound was bioassayed as a volatile using the apparatus described in Example 1 by placing 7 mm diameter plugs of mycelia from actively-growing 1 week-old cultures on V-8 juice media in the 75 ml jars, with the appropriate amount (0, 5, 10, 25 or 100 μl ) of compound applied to the filter paper on the bottom of the larger jar. Assuming complete volatilization, these amounts would produce a nonanone concentration within the headspace of 0.02, 0.04, 0.10, and 0.40 μL/ml, respectively. The sealed jars were then placed in a growth chamber in the dark at 10° C. for 7 days. Due to growth of fungi limited to the plug in many cases and the difficulty of accurately measuring the fungal growth in the jars, a rating system was developed as follows: 0, no growth of fungi, including on plug; 1, growth on plug only; 2, small amount of fungal growth on medium; 3, most of medium covered with fungal mycelia; and 4, all of medium covered. The treatment was replicated three times and the data were treated by statistical analysis of variance.
# rat = details: cited from earlier work
# [2] = test system: red raspberries (cv. `Heritage`); assay: Fruit damage rating of inoculated raspberry fruit exposed to volatile compounds; design: species or system Rubus idaeus L.; details: 0.4 μl/ml vapor, 10 days, 10° C.; mean, 0 = intact, undamaged fruit, 3 = whole fruit necrotic and watersoaked
# Experimental: (§4) Untreated red raspberries (cv. `Heritage`) and strawberries (cv. `Ozark Beauty`) were harvested and used the same day. Berries were selected on the basis of uniform size, color, firmness, and absence of evidence of defects or diseases.
# as §2
# (§5) Red raspberries and strawberries were rinsed with sterile distilled water and allowed to dry before inoculation. The fruit was sprayed with the spore suspension to runoff. Single red raspberries or strawberries were placed in the 75 ml jars, and 100 μl each of a single test compound was added to the filter paper on the bottom of a 275 ml jar. The 275 ml jar was then sealed. Fruit were kept at 10° C. in the dark for 10 days then rated for development of fungi and for damage to the fruit due to the treatments. […]
# C. gloeosporioides [3] = assay: Treatment of isolated cultures with 2-nonanone vapor; format: cell-based, Colletotrichum gloeosporioides; details: 7 days, 10° C., 0 = no growth, 4 = media completely covered
# Experimental: as §1, §2, §3
# [4] = test system: strawberries (cv. `Ozark Beauty`); assay: Fruit damage rating of inoculated strawberry fruit exposed to volatile compounds; design: species or system Fragaria ananassa, Duchesne; details: 0.4 μl/ml vapor, 10 days, 10° C.; mean, 0 = intact, undamaged fruit, 3 = whole fruit necrotic and watersoaked
# Experimental: as §4, §2, §5
# [5] = test system: composite spore suspension of A. alternata, B. cinerea and C. gloeosporioides on strawberries; assay: Fungal growth on inoculated strawberry fruit exposed to volatile compounds; details: 0.4 μl/ml vapor, 10 days, 10° C.; mean, 0 = no fungi present, 3 = fruit completely covered by fungal mycelia
# Experimental: as §1, §4
# (§6) A bioassay system was developed to test the effects of the volatile compounds on fungal growth both on intact fruit and on V-8 juice medium. The apparatus consisted of 75 ml glass jars into which either fruit or sterilized V-8 juice medium (10 ml) were added. […]
# [6] = test system: composite spore suspension of A. alternata, B. cinerea and C. gloeosporioides on red raspberries; assay: Fungal growth on inoculated raspberry fruit exposed to volatile compounds; details: 0.4 μl/ml vapor, 10 days, 10° C.; mean, 0 = no fungi present, 3 = fruit completely covered by fungal mycelia
# Experimental: as §1, §4, §6
# C. gloeosporioides [7] = assay: Radial growth of cultures with 2-nonanone in the growth medium; format: cell-based; details: Colletotrichum gloeosporioides, read-out: Fungal Growth (% of control), C. gloeosporioides
# Experimental: as §1, with “experiment. 2-Nonanone was assayed as a medium component by adding an appropriate amount to cooled V-8 juice media in 9.0 cm plastic petri dishes. Experiments were initiated by placing 7 mm plugs of mycelia in the center of the petri dishes. As the cultures were nearly circular, the radii (from the inoculum plug to one typical point on the growing margin) of the cultures were measured and expressed as a percentage of the control. The treatment was replicated five times and the data were treated by analysis of variance.” for “experiment.”
# A. alternata [8] = assay: as above; format: cell-based; details: Alternaria alternata, read-out: Fungal Growth (% of control), A. alternata
# Experimental: as §1, with “experiment. 2-Nonanone was assayed as a medium component by adding an appropriate amount to cooled V-8 juice media in 9.0 cm plastic petri dishes. Experiments were initiated by placing 7 mm plugs of mycelia in the center of the petri dishes. As the cultures were nearly circular, the radii (from the inoculum plug to one typical point on the growing margin) of the cultures were measured and expressed as a percentage of the control. The treatment was replicated five times and the data were treated by analysis of variance.” for “experiment.”
# B. cinerea [9] = assay: as above; format: cell-based; details: Botrytis cinerea, read-out: Fungal Growth (% of control), B. cinerea
# Experimental: as §1, with “experiment. 2-Nonanone was assayed as a medium component by adding an appropriate amount to cooled V-8 juice media in 9.0 cm plastic petri dishes. Experiments were initiated by placing 7 mm plugs of mycelia in the center of the petri dishes. As the cultures were nearly circular, the radii (from the inoculum plug to one typical point on the growing margin) of the cultures were measured and expressed as a percentage of the control. The treatment was replicated five times and the data were treated by analysis of variance.” for “experiment.”
# A. alternata [10] = assay: Treatment of isolated cultures with 2-nonanone vapor; format: cell-based, Alternaria alternata; details: 7 days, 10° C., 0 = no growth, 4 = media completely covered
# Experimental: as §1, §2, §3
structure (smiles),measurement,setting,value
"CCCCCCCC(C)=O [2-Nonanone, 2-nonanone]","Fungal Growth Rating, B. cinerea",B. cinerea [1]; vapor phase 0.02 μl/ml,1.0
same,"Fungal Growth Rating, B. cinerea",B. cinerea [1]; vapor phase 0.04 μl/ml,0.0
same,"Fungal Growth Rating, B. cinerea",B. cinerea [1]; vapor phase 0.10 μl/ml,0.0
same,"Fungal Growth Rating, B. cinerea",B. cinerea [1]; vapor phase 0.40 μl/ml,0.0
same,oral rat LD50,rat,3200 mg/kg
same,"Fruit damage rating, Raspberry",[2],2.0
same,"Fungal Growth Rating, C. gloeosporioides",C. gloeosporioides [3]; vapor phase 0.02 μl/ml,2.0
same,"Fungal Growth Rating, C. gloeosporioides",C. gloeosporioides [3]; vapor phase 0.04 μl/ml,0.6
same,"Fungal Growth Rating, C. gloeosporioides",C. gloeosporioides [3]; vapor phase 0.10 μl/ml,0.0
same,"Fungal Growth Rating, C. gloeosporioides",C. gloeosporioides [3]; vapor phase 0.40 μl/ml,0.0
same,"Fruit damage rating, Strawberry",[4],1.7
same,"Fungal Rating, Strawberry",[5],0.0
same,"Fungal Rating, Raspberry",[6],0.0
same,activity at 0.01 %,C. gloeosporioides [7]; 0.01% in V-8 juice medium,100%
same,activity at 0.1 %,C. gloeosporioides [7]; 0.10% in V-8 juice medium,95.7%
same,activity at 1 %,C. gloeosporioides [7]; 1.00% in V-8 juice medium,0%
same,activity at 0.01 %,A. alternata [8]; 0.01% in V-8 juice medium,85.2%
same,activity at 0.1 %,A. alternata [8]; 0.10% in V-8 juice medium,48.7%
same,activity at 1 %,A. alternata [8]; 1.00% in V-8 juice medium,0%
same,activity at 0.01 %,B. cinerea [9]; 0.01% in V-8 juice medium,100%
same,activity at 0.1 %,B. cinerea [9]; 0.10% in V-8 juice medium,83%
same,activity at 1 %,B. cinerea [9]; 1.00% in V-8 juice medium,0%
same,"Fungal Growth Rating, A. alternata",A. alternata [10]; vapor phase 0.02 μl/ml,2.7
same,"Fungal Growth Rating, A. alternata",A. alternata [10]; vapor phase 0.04 μl/ml,1.3
same,"Fungal Growth Rating, A. alternata",A. alternata [10]; vapor phase 0.10 μl/ml,0.0
same,"Fungal Growth Rating, A. alternata",A. alternata [10]; vapor phase 0.40 μl/ml,0.0
